Data as given in patent US20190106460A1, “BINDING INHIBITORS OF THE BETA. TRANSDUCIN REPEAT-CONTAINING PROTEIN” (priority 2011, published 2019).
Like-named read-outs stand apart in the source and are kept apart here. Starred links: 1 amine or outer side, 2 acyl side, 3 side chain; linkers in the order of their positions; H or OH if unused. Non-standard residues stand in square brackets, D forms with d. Residues, ends and D or L forms follow the SMILES beside them. *: point of attachment. 2Naphthylsulfonyl = O=S(=O)(c1ccc2ccccc2c1)*; Phe(3-Cl) = N[C@@H](Cc1cccc(Cl)c1)C(=O)O; Phe(3-F) = N[C@@H](Cc1cccc(F)c1)C(=O)O; 1Nal = N[C@@H](Cc1cccc2ccccc12)C(=O)O; NMeE = CN[C@@H](CCC(=O)O)C(=O)O; X2 = COc1ccc(S(=O)(=O)*)cc1OC; Suc = O=C(CCC(=O)[*:2])[*:1]; Tos = Cc1ccc(S(=O)(=O)*)cc1; Propionyl = CCC(=O)*; Bz = O=C(c1ccccc1)*; Moc = COC(=O)*

What was measured:
βTrCP [1] = target: βTrCP (Homo sapiens, UniProt Q9Y297); test: Fluorescence polarisation (FP) binding assay with fluorescein-tagged IκB peptide
Target sequence in this assay (P63208 whole entry partner, one chain of several): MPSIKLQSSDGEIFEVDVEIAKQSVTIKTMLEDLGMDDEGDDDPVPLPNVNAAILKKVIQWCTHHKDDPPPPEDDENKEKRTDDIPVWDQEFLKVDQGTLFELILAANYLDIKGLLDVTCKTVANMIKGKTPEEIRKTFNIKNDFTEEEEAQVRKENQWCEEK

βTrCP [2] = target: T1, βTrCP (Homo sapiens, UniProt Q9Y297); test: Biotin pull down assay with biotinylated IκB peptide; type: binding; details: for Biotin Pulldown Assay 10 μM: 10 μM compound; for Biotin Pulldown Assay 100 μM: 100 μM compound
T1 sequence (Q9Y297 1-605): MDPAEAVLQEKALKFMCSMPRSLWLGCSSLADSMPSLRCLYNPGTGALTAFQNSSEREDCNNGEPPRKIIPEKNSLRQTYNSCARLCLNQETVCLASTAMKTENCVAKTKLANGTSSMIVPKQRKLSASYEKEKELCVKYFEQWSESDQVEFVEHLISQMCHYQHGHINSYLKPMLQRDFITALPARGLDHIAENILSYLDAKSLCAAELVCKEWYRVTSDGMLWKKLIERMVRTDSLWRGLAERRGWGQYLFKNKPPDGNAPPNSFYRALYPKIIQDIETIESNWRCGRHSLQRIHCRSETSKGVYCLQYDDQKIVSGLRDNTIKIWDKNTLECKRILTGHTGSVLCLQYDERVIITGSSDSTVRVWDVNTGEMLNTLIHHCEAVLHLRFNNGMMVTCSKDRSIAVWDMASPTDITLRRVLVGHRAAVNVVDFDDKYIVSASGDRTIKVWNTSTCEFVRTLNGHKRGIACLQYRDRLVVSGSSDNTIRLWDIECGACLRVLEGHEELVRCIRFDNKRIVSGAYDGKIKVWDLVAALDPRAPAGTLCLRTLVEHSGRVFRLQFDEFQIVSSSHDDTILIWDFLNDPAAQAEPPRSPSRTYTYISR

β-TrCP1/Skp1 = β-TrCP1/Skp1 (Homo sapiens, UniProt Q9Y297); test: βTrCP ubiquitination assay (Ub assay); type: biochemical; details: for Ub Assay 10 μM: 10 μM compound; for Ub Assay 100 μM: 100 μM compound
Experimental: (§1) βTrCP Ubiquitination Assay and Selectivity Assays
0.5 μM Peptide substrate (biotin)
(§2) Master mixes were prepared in a 50 mM Herpes buffer at pH 7.5, in 75 mM NaCl and 1 mM DTT without Mg or ATP and peptides were added to a final concentration of 100 μM. Reactions were incubated at room temperature for 30 minutes and then Mg/ATP was added to the mix. Reactions were further incubated for an additional 60 minutes and then stopped by adding SDS gel loading buffer and boiled for 5 minutes. Reactions were run on SDS-PAGE (10%) and transferred to nitrocellulose membranes and probed with HRP-Streptavidin.
Candidate compounds were tested in duplicate at both 10 and 100 μM against the E3 ligase cascades βTrCP(IκBα) and βTrCP(β-catenin). The E3 assays were carried out according to the component concentrations detailed in Table 9. In each case the E2 was HA,6His-UbcH3-(hu,FL), the E1 was 6His-UBE1-(hu,FL) and the ubiquitin (Sigma U6253) was biotinylated at a 5:1 ratio. Substrate phosphorylation was performed in the absence of compound; consequently any observed signal modulation should not reflect inhibition of the up-stream kinase reaction. All other steps (E1, E2 and substrate ubiquitination) were carried out in the presence of compound. The stopped reaction mix (10 μl) was added to an ECL plate loaded with anti c-Myc ( 1/500 Dilution, Millipore 05-724) and blocked with 5% BSA. Binding was allowed to proceed for 1 hour at RT before a wash step (3 40 μl PBST washes). Detection was achieved by binding SA-Ru TAG at 1 μg/ml (1 hour @ RT, 3 40 μl PBST washes) before reading on an MSD Sector Imager 6000.
Assays were performed as described above

Skp2 = Skp2 (Homo sapiens, UniProt Q13309); test: Selectivity assay vs other E3s: Skp2; type: biochemical; details: for inhibition at 100 µM: read-out: % Inhibition Skp2 @ (100 μM); for inhibition at 10 µM: read-out: % Inhibition Skp2 @ 10 μM
Experimental: as §1, §2
(§3) Candidate compounds were tested for inhibition of Fbw7 and Skp2 as described above.

FBW7/Skp1 = FBW7/Skp1 (Homo sapiens, UniProt Q969H0); test: Selectivity assay vs other E3s: Fbw7; type: biochemical; details: for inhibition at 100 µM: read-out: % Inhibition Fbw7 @ (100 μM); for inhibition at 10 µM: read-out: % Inhibition Fbw7 @ 10 μM
Experimental: as §1, §2
FBW7 selectivity assays were performed in the same manner except using FBW7/Skp1 as E3 component and cyclin E as the substrate. Blots were probed using anti-cyclin E antibody.
as §3

[3] = Table 11, with spread, read-out: FP IC50/μM
[4] = Tables 1, 3, 7, 8, 10 nM fluorescein-tagged IκB peptide, read-out: FP Assay IC50/μM

FBW7/Skp1, sequence (Q969H0 whole entry, species assumed): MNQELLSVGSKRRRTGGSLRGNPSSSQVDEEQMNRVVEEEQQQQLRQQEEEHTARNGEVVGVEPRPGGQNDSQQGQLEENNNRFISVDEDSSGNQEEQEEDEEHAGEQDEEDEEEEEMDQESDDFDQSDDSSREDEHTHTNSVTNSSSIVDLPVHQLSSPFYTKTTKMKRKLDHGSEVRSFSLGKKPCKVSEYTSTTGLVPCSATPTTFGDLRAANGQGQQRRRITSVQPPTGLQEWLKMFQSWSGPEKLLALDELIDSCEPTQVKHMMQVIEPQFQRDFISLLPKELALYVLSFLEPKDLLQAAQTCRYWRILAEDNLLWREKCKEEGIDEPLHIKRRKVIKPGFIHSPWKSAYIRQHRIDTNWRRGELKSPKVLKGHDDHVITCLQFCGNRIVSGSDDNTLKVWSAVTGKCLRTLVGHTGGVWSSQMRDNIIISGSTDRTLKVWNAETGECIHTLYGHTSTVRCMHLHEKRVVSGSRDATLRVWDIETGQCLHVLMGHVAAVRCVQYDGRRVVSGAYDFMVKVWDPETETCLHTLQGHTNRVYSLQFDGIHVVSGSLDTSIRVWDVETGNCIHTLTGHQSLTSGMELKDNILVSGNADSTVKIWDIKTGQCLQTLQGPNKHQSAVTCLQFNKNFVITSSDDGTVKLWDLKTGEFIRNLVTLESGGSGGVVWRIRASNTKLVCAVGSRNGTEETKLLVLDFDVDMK
FBW7/Skp1, sequence (P63208 whole entry partner, species assumed): as the sequence (P63208 whole entry partner, one chain of several) above
FBW7/Skp1, sequence (Q13616 whole entry partner, species assumed): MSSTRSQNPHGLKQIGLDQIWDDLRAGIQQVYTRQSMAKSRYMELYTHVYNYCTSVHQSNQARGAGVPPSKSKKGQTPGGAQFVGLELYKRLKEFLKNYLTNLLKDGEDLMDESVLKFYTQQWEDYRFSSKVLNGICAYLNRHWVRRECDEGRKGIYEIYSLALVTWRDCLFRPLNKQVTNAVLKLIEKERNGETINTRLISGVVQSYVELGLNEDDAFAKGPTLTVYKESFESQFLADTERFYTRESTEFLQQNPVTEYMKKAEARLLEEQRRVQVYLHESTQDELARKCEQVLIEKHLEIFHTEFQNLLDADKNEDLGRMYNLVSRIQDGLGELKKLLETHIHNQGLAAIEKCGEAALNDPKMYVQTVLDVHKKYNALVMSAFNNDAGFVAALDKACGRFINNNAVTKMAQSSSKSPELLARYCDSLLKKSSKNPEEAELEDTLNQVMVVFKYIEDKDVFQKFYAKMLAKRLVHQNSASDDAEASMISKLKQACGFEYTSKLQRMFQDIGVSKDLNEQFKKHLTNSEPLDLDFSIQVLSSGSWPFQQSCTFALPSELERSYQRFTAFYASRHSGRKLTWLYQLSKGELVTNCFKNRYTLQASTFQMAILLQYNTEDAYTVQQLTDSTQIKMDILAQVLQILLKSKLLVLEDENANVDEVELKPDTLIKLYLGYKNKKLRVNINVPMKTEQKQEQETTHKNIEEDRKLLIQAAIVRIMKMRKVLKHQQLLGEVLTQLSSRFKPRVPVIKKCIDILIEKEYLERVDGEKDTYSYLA
FBW7/Skp1, sequence (P62877 whole entry partner, species assumed): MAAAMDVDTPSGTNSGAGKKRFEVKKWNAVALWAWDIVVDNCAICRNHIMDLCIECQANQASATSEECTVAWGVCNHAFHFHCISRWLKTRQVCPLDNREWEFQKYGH
Skp2, sequence (Q13309 whole entry, species assumed): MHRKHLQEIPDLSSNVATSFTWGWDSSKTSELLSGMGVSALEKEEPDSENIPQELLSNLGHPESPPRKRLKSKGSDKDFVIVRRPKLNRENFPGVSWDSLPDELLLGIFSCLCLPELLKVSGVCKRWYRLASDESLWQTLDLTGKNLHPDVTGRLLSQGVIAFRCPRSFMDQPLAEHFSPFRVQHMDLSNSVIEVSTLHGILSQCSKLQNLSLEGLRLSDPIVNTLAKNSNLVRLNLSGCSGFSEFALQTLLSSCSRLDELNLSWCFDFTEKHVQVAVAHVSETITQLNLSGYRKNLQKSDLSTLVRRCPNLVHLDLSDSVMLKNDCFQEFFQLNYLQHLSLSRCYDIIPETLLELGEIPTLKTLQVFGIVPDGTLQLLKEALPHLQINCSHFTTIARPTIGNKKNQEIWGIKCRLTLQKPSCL
Skp2, sequence (P63208 whole entry partner, species assumed): as the sequence (P63208 whole entry partner, one chain of several) above
Skp2, sequence (Q13616 whole entry partner, species assumed): as the sequence (Q13616 whole entry partner, species assumed) above
Skp2, sequence (P62877 whole entry partner, species assumed): as the sequence (P62877 whole entry partner, species assumed) above
β-TrCP1/Skp1, sequence (P63208 2-163 partner limits assumed, one chain of several): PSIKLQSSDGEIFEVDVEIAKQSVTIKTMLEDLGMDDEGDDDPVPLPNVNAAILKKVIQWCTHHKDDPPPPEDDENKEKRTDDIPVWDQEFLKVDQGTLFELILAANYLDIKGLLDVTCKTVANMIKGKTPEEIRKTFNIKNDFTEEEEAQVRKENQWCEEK

Structure (SMILES) | IC50 (βTrCP [1]; [3]) [µM] | Biotin Pulldown Assay 10 μM (βTrCP [2]) | Biotin Pulldown Assay 100 μM (βTrCP [2]) | Ub Assay 10 μM (β-TrCP1/Skp1) | Ub Assay 100 μM (β-TrCP1/Skp1) | inhibition at 100 µM (Skp2; 100 μM, value in brackets) [%] | inhibition at 10 µM (Skp2) [%] | inhibition at 100 µM (FBW7/Skp1; 100 μM, value in brackets) [%] | inhibition at 10 µM (FBW7/Skp1) [%] | IC50 (βTrCP [1]; [4]) [µM] | FP Assay IC50/μM (βTrCP [1]; Tables 1, 3, 7, 8, 10 nM fluorescein-tagged IκB peptide) | IC50 (βTrCP [1]; FP Assay IC50/μM, Tables 1, 3, 7, 8, 10 nM fluorescein-tagged IκB peptide) [µM] | IC50 (βTrCP [1]; FP IC50/μM, Table 11, with spread) [µM] | inhibition at 100 µM (Skp2) [%] | inhibition at 100 µM (FBW7/Skp1) [%]
COC(=O)N[C@H](CC(=O)O)C(=O)N[C@@H](CCC(=O)O)C(=O)NCC(=O)N[C@@H](Cc1cccc(F)c1)C(=O)N[C@@H](Cc1c[nH]c2ccccc12)C(=O)N[C@@H](CCC(=O)O)C(N)=O [UBP020, MeO(CO)-dEGF(3F)WE-NH2] (Moc-[dD]EG[Phe(3-F)]WE-NH2) | 0.076 ± 0.014 | reduces/ | inhibits | inhibits/ | inhibits | 16 | 0 | 8 | 6 |  |  |  |  |  | 
Cc1ccc(S(=O)(=O)N[C@H](CC(=O)O)C(=O)N[C@@H](CC(=O)O)C(=O)NCC(=O)N[C@@H](Cc2cccc(F)c2)C(=O)N[C@@H](Cc2c[nH]c3ccccc23)C(=O)N[C@@H](CCC(=O)O)C(N)=O)cc1 [UBP025, Ts-dDGF(3F)WE-NH2] (Tos-[dD]DG[Phe(3-F)]WE-NH2) | 0.025 ± 0.004 | s. reduces/ | inhibits | inhibits/ | inhibits | 22 | 0 | 8 | 1 | 0.025 |  |  |  |  | 
CCC(=O)N[C@H](CC(=O)O)C(=O)N[C@@H](CCC(=O)O)C(=O)NCC(=O)N[C@@H](Cc1cccc(F)c1)C(=O)N[C@@H](Cc1c[nH]c2ccccc12)C(=O)N[C@@H](CCC(=O)O)C(N)=O [UBP019, Et(CO)-dEGF(3F)WE-NH2] (Propionyl-[dD]EG[Phe(3-F)]WE-NH2) | 0.145 ± 0.026 | reduces/ | inhibits | reduces/ | inhibits | 10 | 1 | 10 | 0 | 0.145 |  |  |  |  | 
NC(=O)[C@H](CCC(=O)O)NC(=O)[C@H](Cc1ccccc1)NC(=O)[C@H](Cc1ccccc1)NC(=O)CNC(=O)[C@H](CCC(=O)O)NC(=O)CCC(=O)O [UBP002, Suc-EGFFE-NH2] (Suc-EGFFE-NH2) | 3.18 ± 0.357 | no effect/ | reduces | reduces/ | inhibits | 0 | 14 | 0 | 0 |  | low μM inhibitor |  |  |  | 
COc1ccc(S(=O)(=O)N[C@H](CC(=O)O)C(=O)N[C@@H](CCC(=O)O)C(=O)NCC(=O)N[C@@H](Cc2cccc(F)c2)C(=O)N[C@@H](Cc2c[nH]c3ccccc23)C(=O)N[C@@H](CCC(=O)O)C(N)=O)cc1OC [UBP029, 3,4-(MeO)2-PhSO2-dEGF(3F)WE-NH2] (X2-[dD]EG[Phe(3-F)]WE-NH2) | 0.042 ± 0.001 | reduces/ | inhibits | reduces/ | inhibits | 19 | 19 | 0 | 2 |  |  |  |  |  | 
CC(=O)N[C@H](CC(=O)O)C(=O)N[C@@H](CCC(=O)O)C(=O)NCC(=O)N[C@@H](Cc1cccc(F)c1)C(=O)N[C@@H](Cc1cccc2ccccc12)C(=O)N[C@@H](CCC(=O)O)C(N)=O [UBP016, Ac-dEGF(3F)1NalE-NH2] (Ac-[dD]EG[Phe(3-F)][1Nal]E-NH2) | 0.112 ± 0.017 | reduces/ | inhibits | reduces/ | inhibits | 7 | 0 | 8 | 3 |  |  |  |  |  | 
CC(=O)N[C@H](CC(=O)O)C(=O)N[C@@H](CCC(=O)O)C(=O)NCC(=O)N[C@@H](Cc1cccc(F)c1)C(=O)N[C@@H](Cc1c[nH]c2ccccc12)C(=O)N[C@@H](CCC(=O)O)C(N)=O [UBP017, Ac-dEGF(3F)WE-NH2] (Ac-[dD]EG[Phe(3-F)]WE-NH2) | 0.102 ± 0.017 | reduces/ | inhibits | reduces/ | inhibits | 27 | 10 | 0 | 3 | 0.102 |  |  |  |  | 
NC(=O)[C@H](CCC(=O)O)NC(=O)[C@H](Cc1c[nH]c2ccccc12)NC(=O)[C@H](Cc1cccc(F)c1)NC(=O)CNC(=O)[C@H](CCC(=O)O)NC(=O)[C@@H](CC(=O)O)NC(=O)c1ccccc1 [UBP018, Bz-dEGF(3F)WE-NH2] (Bz-[dD]EG[Phe(3-F)]WE-NH2) |  | reduces/ | inhibits | reduces/ | inhibits |  | 0 |  | 0 |  |  | 0.173 | 0.173 ± 0.072 | 0 | 5
Cc1ccc(S(=O)(=O)N[C@H](CC(=O)O)C(=O)N[C@@H](CCC(=O)O)C(=O)NCC(=O)N[C@@H](Cc2cccc(Cl)c2)C(=O)N[C@@H](Cc2c[nH]c3ccccc23)C(=O)N[C@@H](CCC(=O)O)C(N)=O)cc1 [UBP034, Ts-dEGF(3Cl)WE-NH2] (Tos-[dD]EG[Phe(3-Cl)]WE-NH2) | 0.01 ± 0.002 | s. reduces/ | inhibits | inhibits/ | inhibits | 0 | 0 | 6 | 8 |  |  |  |  |  | 
Cc1ccc(S(=O)(=O)N[C@H](CC(=O)O)C(=O)N[C@@H](CCC(=O)O)C(=O)NCC(=O)N[C@@H](Cc2cccc(Cl)c2)C(=O)N[C@@H](Cc2c[nH]c3ccccc23)C(=O)N(C)[C@@H](CCC(=O)O)C(N)=O)cc1 [UBP033, Ts-dEGF(3Cl)WE(Me)-NH2] (Tos-[dD]EG[Phe(3-Cl)]W[NMeE]-NH2) |  |  | inhibits |  | inhibits | 10 | 0 | 11 | 7 | 0.017 |  |  |  |  | 
NC(=O)[C@H](CCC(=O)O)NC(=O)[C@H](Cc1c[nH]c2ccccc12)NC(=O)[C@H](Cc1cccc(F)c1)NC(=O)CNC(=O)[C@H](CCC(=O)O)NC(=O)[C@@H](CC(=O)O)NS(=O)(=O)c1ccc2ccccc2c1 [UBP031, 2-NaphthylSO2-dEGF(3F)WE-NH2] (2Naphthylsulfonyl-[dD]EG[Phe(3-F)]WE-NH2) | 0.044 ± 0.005 | reduces/ | inhibits | reduces/ | inhibits | 17 | 0 | 11 | 10 |  |  |  |  |  | 
